Measurements published in US20060281778A1, “Compounds for inhibiting KSP Kinesin activity” (Schering Corporation, priority 2005, published 2006).
Read-outs that look alike come from different tables or passages of the source.

Target: T1, KSP motor domain (Homo sapiens, UniProt P52732)
T1 sequence (P52732 18-359 limits assumed): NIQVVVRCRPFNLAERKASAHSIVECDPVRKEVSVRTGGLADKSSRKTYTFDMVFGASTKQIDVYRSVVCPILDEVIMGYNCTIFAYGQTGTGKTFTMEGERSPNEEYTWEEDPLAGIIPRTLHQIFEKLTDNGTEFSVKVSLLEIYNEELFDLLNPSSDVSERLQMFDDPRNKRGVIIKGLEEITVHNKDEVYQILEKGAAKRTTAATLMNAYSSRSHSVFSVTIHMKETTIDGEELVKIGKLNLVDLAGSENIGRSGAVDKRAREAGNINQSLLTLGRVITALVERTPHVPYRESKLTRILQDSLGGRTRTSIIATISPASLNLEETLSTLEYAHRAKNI
Test: KSP endpoint assay (microtubule-stimulated ATPase, Biomol green, OD620)
Assay type: biochemical
Protocol: Serial dilutions of the compounds were prepared in a low binding, 96-well microtiter plate (Costar #3600) using 40% DMSO (Fisher BP231). The diluted compounds were added to a 384-well microtiter plate (Fisher 12-565-506). […] Following a 10 minute incubation, ATP (Sigma A-3377) (final concentration of ATP: 100 μM) was added to start the reaction. The final reaction volume was 25 μL. Final test compound concentration ranged from 50 μM to 5 nM, and 10 μM to 0.128 nM. The reaction was incubated for 1 hour at room temperature. The reaction was stopped by the addition of 50 μL Biomol green reagent (Biomol AK111) per well, and was allowed to incubate for 20 minutes at room temperature. The 384-well microtiter plate was then transferred to an absorbance reader (Molecular Devices SpectraMax plus) and a single measurement was taken at 620 nm.
For both endpoint and kinetic assays, the percent activity for each concentration is calculated using the following equation: Y=((X−background)/(positive control−background))*100
Y is the % activity and X is the measured reading (OD620 or rate)
For an IC50 determination, the % activity was fit by the following equation using a nonlinear curve-fitting program for sigmoidal dose-responses (variable slopes) (GraphPad Prizm). Y=Bottom+(Top−Bottom)/(1+10ˆ((Log EC50−X)*HillSlope))
All IC50 values are obtained from the end point assay.

[1] = endpoint assay, 2.5-10 nM KSP motor domain, 55 μg/mL microtubules, 100 μM ATP, 1 hour at room temperature, read-out: IC50 (KSP inhibitory activity, endpoint assay)

SMILES	IC50 [1] [nM]	IC50 [nM]
CC(C)(C)c1ccc2nc3sc(C(=O)O)cc3cc2c1 [Compound 3, 6-tert-butyl-thieno[2,3-b]quinoline-2-carboxylic acid]	> 10000	
CC(C)(C)c1ccc2nc3sc(C(=O)NCC#N)cc3cc2c1 [Compound 9, 6-tert-butyl-thieno[2,3-b]quinoline-2-carboxylic acid cyanomethylamide]	600	
COc1ccc(CN2CC(NC(=O)c3cc4cc5cc(C(C)(C)C)ccc5nc4s3)C2=O)c(OC)c1 (centres unmarked) [Compound 10, 6-tert-butyl-thieno[2,3-b]quinoline-2-carboxylic acid [1-(2,4-dimethoxybenzyl)-2-oxo-azetidin-3-yl]amide]	> 10000	
CC(C)(C)c1ccc2nc3sc(C(=O)NCCC#N)cc3cc2c1 [Compound 8, 6-tert-Butyl-thieno[2,3-b]quinoline-2-carboxylic acid (2-cyanoethyl)amide]	9000	
CC(C)(C)c1ccc2nc3sc(C(=O)NC4CNC4=O)cc3cc2c1 (centres unmarked) [Compound 11, 6-tert-butyl-thieno[2,3-b]quinoline-2-carboxylic acid (2-oxo-azetidin-3-yl)amide]	8400	
CC(C)(C)c1ccc2nc3sc(C(=O)N[C@H](CN)c4cccc(NC(=O)c5nccnc5N)c4)cc3cc2c1 [Compound 16]	26	
CC(C)(C)c1ccc2nc3sc(C(=O)NCCN)cc3cc2c1 [Compound 5, 6-tert-butyl-thieno[2,3-b]quinoline-2-carboxylic acid (2-aminoethyl)amide]	70	
CC(C)(C)c1ccc2nc3sc(C#N)cc3cc2c1 [Compound 1, 6-tert-butyl-thieno[2,3-b]quinoline-2-carbonitrile]	160	
CNCCNC(=O)c1cc2cc3cc(C(C)(C)C)ccc3nc2s1 [Compound 6, 6-tert-butyl-thieno[2,3-b]quinoline-2-carboxylic acid (2-methylaminoethyl)amide]	290	
CC(C)(C)c1ccc2nc3sc(C(=O)N[C@H](CN)c4ccccc4)cc3cc2c1 [Compound 13, 6-tert-butyl-thieno[2,3-b]quinoline-2-carboxylic acid (2-amino-1-(S)-phenyl-ethyl)-amide]	35	
Cc1cc(C(=O)Nc2cccc([C@@H](CN)NC(=O)c3cc4cc5cc(C(C)(C)C)ccc5nc4s3)c2)no1 [Compound 17, 6-tert-butyl-thieno[2,3-b]quinoline-2-carboxylic acid (2-amino-1(S)-{3-[(5-methyl-isoxazole-3-carbonyl)-amino]-phenyl}-ethyl)-amide]	36	
CC(C)(C)c1ccc2nc3sc(C(N)=O)cc3cc2c1 [Compound 2, 6-tert-butyl-thieno[2,3-b]quinoline-2-carboxylic acid amide]	80	
CC(C)(C)OC(=O)NCCNC(=O)c1cc2cc3cc(C(C)(C)C)ccc3nc2s1 [Compound 4, {2-[(6-tert-Butyl-thieno[2,3-b]quinoline-2-carbonyl)amino]ethyl}carbamic acid tert-butyl ester]	> 10000	
CC(C)(C)c1ccc2nc3sc(C(=O)N[C@H](CN)c4cccc(N)c4)cc3cc2c1 [Compound 14, 6-tert-butyl-thieno[2,3-b]quinoline-2-carboxylic acid [2(S)-amino-1-(3-amino-phenyl)-ethyl]-amide]	25	
CC(C)(C)c1ccc2nc3sc(C(=O)N[C@H](CN)c4cccc(NC(=O)c5cnccn5)c4)cc3cc2c1 [Compound 15, 6-tert-butyl-thieno[2,3-b]quinoline-2-carboxylic acid (2-amino-1(S)-{3-[(pyrazine-2-carbonyl)-amino]-phenyl}-ethyl)-amide]	30	
CN(C)CCNC(=O)c1cc2cc3cc(C(C)(C)C)ccc3nc2s1 [Compound 7, 6-tert-butyl-thieno[2,3-b]quinoline-2-carboxylic acid (2-dimethylaminoethyl)-amide]	> 10000	
C[Si](C)(C)c1ccc2nc3sc(C(N)=O)cc3cc2c1 [Compound 12, 6-(trimethylsilyl)thieno[2,3-b]quinoline-2-carboxamide]		38
